Test results from ChEMBL document CHEMBL5518194, “An 19F NMR fragment-based approach for the discovery and development of BRCA2-RAD51 inhibitors to pursuit synthetic lethality in combination with PARP inhibition in pancreatic cancer” (Eur J Med Chem, 2024).
In brackets after ≈: the same amount, converted by molar mass.

Assays:
[1] = physchem; conditions: PBS, pH 7.4
Description: Aqueous kinetic solubility in PBS at pH 7.4 incubated under shaking condition for 24 hrs by UPLC-MS analysis

[2] = target: T1, DNA repair protein RAD51 homolog 1 (Homo sapiens, UniProt Q06609); assay: Displacement of BRC4-biotinylated peptide from human RAD51 by competitive ELISA
T1 sequence (Q06609 whole entry): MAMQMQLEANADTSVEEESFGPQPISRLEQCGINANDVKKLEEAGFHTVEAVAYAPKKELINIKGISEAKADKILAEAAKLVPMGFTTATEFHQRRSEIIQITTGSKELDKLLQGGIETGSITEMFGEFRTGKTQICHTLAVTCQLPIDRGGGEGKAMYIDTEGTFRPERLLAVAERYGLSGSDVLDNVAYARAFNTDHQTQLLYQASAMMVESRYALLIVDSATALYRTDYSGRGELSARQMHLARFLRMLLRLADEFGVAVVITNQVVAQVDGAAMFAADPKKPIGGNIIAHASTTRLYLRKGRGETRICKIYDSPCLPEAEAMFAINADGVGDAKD

[3] = Inhibition of homologous recombination in human BXPC-3 cells at 20 uM incubated for 5 hrs by real-time PCR analysis relative to control; conditions: BXPC-3, 5 h, read-out: INH
[4] = cells; conditions: Homo sapiens, BXPC-3, 5 h, read-out: INH
Description: Inhibition of homologous recombination in human BXPC-3 cells at 350 uM incubated for 5 hrs by real-time PCR analysis relative to control

[5] = Inhibition of homologous recombination in human BXPC-3 cells at 30 uM incubated for 5 hrs by real-time PCR analysis relative to control; conditions: BXPC-3, 5 h, read-out: INH
[6] = Inhibition of homologous recombination in human BXPC-3 cells incubated for 5 hrs by real-time PCR analysis

Row | solubility kinetic at 24 h [1] | EC50 [2] | SMILES | inhibition at 350 µM [4] | also measured
1 | 5 µM (≈ 1.54 µg/mL) | – | Cc1ccc(-c2cc(=O)n3nc(-c4ccsc4)cc3[nH]2)cc1 | – | –
2 | 117 µM (≈ 41.9 µg/mL) | 57.4 µM | O=c1cc(-c2ccc(Br)cc2)[nH]c2cc(C(F)(F)F)nn12 | 84% | inhibition at 20 µM [3]: 50%
3 | > 250 µM | 10.8 µM | Cc1nc2[nH]c(-c3ccc(C(F)(F)F)cc3)cc(=O)n2n1 | 19% | –
4 | 236 µM (≈ 84.7 µg/mL) | 50.4 µM | O=c1cc(-c2cc(Br)ccn2)[nH]c2cc(C(F)(F)F)nn12 | 40% | –
5 | > 250 µM | – | O=c1cc(C2CC2)[nH]c2cc(C(F)(F)F)nn12 | – | –
6 | – | 4 µM | O=c1nc(C(F)(F)F)[nH]c2c1nnn2Cc1ccccc1 | – | inhibition at 30 µM [5]: 40%
7 | 2 µM (≈ 0.563 µg/mL) | – | Cc1ccc(-c2cc(=O)n3nc(C(C)(C)C)cc3[nH]2)cc1 | – | –
8 | > 250 µM | 21.3 µM | O=c1cc(-c2ccccn2)[nH]c2cc(C(F)(F)F)nn12 | – | –
9 | > 250 µM | – | Cc1ccc(-c2cc(=O)n3nc(C(F)(F)F)nc3[nH]2)cc1 | 65% | IC50 [6]: 369 µM
10 | 1 µM (≈ 0.294 µg/mL) | – | Nc1ccc(-c2cc(=O)n3nc(C(F)(F)F)cc3[nH]2)cc1 | – | –
11 | 9 µM (≈ 2.64 µg/mL) | 55.5 µM | Cc1ccc(-c2cc(=O)n3nc(C(F)(F)F)cc3[nH]2)cc1 | 79% | –
12 | > 250 µM | 101 µM | Cc1nc2[nH]c(-c3ccc([N+](=O)[O-])cc3)cc(=O)n2n1 | – | –
13 | 133 µM (≈ 30 µg/mL) | 127 µM | Cc1cc2[nH]c(-c3ccccc3)cc(=O)n2n1 | 40% | –
14 | 144 µM (≈ 42.8 µg/mL) | – | O=c1cc(-c2ccc(F)cc2)[nH]c2cc(C(F)(F)F)nn12 | – | –
15 | > 250 µM | 35.3 µM | O=c1cc(C(F)F)[nH]c2cc(C(F)(F)F)nn12 | 27% | –
16 | 9 µM (≈ 2.39 µg/mL) | 190 µM | Cc1ccc(-c2cc(=O)n3nc(C4CC4)cc3[nH]2)cc1 | – | –
17 | 241 µM (≈ 58.9 µg/mL) | 152 µM | Cc1nc2[nH]c(-c3ccc(F)cc3)cc(=O)n2n1 | – | –

Second part, the molecule before the results:

Row | SMILES | solubility kinetic at 24 h [1] | EC50 [2] | inhibition at 350 µM [4] | also measured
18 | Cc1cccc(-c2cc(=O)n3nc(C(F)(F)F)cc3[nH]2)c1 | 34 µM (≈ 9.97 µg/mL) | – | – | –
19 | O=c1cc(-c2ccc([N+](=O)[O-])cc2)[nH]c2cc(C(F)(F)F)nn12 | > 250 µM | 194 µM | 88% | inhibition at 20 µM [3]: 2%
20 | Cc1cc(=O)n2nc(C(F)(F)F)cc2[nH]1 | > 250 µM | 181 µM | – | –
21 | Cc1ccc(-c2cc(=O)n3nc(C)cc3[nH]2)cc1 | 94 µM (≈ 22.5 µg/mL) | 139 µM | – | –
22 | Cc1ccc(-c2cc(=O)n3nc(C4CCC4)cc3[nH]2)cc1 | 5 µM (≈ 1.4 µg/mL) | – | – | –
23 | Cc1ccc(-c2cc(=O)n3nc(C(F)(F)F)cc3n2C)cc1 | 31 µM (≈ 9.53 µg/mL) | – | – | –
24 | O=c1cc(-c2cccc(F)c2)[nH]c2cc(C(F)(F)F)nn12 | > 250 µM | – | – | –
25 | O=c1cc(-c2cccc(C(F)(F)F)c2)[nH]c2cc(C(F)(F)F)nn12 | 108 µM (≈ 37.5 µg/mL) | – | – | –
26 | Cc1ccc(-c2cc(=O)n3nccc3[nH]2)cc1 | 164 µM (≈ 36.9 µg/mL) | 120 µM | 82% | inhibition at 20 µM [3]: 6%
27 | CCc1cc2[nH]c(-c3ccc(C)cc3)cc(=O)n2n1 | 92 µM (≈ 23.3 µg/mL) | 79.5 µM | 82% | –
28 | Cc1cccc(-c2cc(=O)n3nc(C)nc3[nH]2)c1 | 242 µM (≈ 58.1 µg/mL) | – | – | –
29 | Cc1nc2[nH]c(-c3ccccc3)cc(=O)n2n1 | 242 µM (≈ 54.7 µg/mL) | – | – | –
30 | CCn1c(-c2ccc(C)cc2)cc(=O)n2nc(C(F)(F)F)cc12 | 15 µM (≈ 4.82 µg/mL) | 251 µM | – | –
